The target in experiment [1] is T1, mGAT2 (Mus musculus, UniProt P31651).
T1 construct: expressed in transfected cells; host or cells: HEK293
T1 sequence (P31651 1-614): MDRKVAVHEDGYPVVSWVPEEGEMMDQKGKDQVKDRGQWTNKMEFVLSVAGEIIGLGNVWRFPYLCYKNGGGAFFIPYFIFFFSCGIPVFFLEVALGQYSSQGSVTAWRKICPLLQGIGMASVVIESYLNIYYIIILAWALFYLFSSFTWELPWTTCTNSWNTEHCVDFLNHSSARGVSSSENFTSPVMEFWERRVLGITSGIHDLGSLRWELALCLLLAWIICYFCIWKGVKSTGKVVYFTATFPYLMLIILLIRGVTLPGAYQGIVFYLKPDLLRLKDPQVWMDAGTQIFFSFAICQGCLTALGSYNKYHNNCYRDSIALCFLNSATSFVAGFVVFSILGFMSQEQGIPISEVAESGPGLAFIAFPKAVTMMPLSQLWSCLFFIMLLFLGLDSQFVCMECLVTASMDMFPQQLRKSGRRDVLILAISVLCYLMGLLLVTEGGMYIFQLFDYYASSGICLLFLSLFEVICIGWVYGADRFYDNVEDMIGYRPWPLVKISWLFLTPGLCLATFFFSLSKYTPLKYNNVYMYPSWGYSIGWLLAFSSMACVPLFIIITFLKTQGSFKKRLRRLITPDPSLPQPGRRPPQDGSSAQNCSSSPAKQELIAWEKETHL
Kind of experiment: [^3H]GABA uptake assay, HEK293 cells expressing mGAT2. It counts as cell-based. The conditions noted are these: for remaining activity at 100 µM: HEK293, in presence of 100 μM compound. The protocol: (§1) For compounds with pIC50 ([^3H]GABA uptake assay) or pK i (MS Binding Assays) values close to or above 5.0, these experiments were repeated twice and SEM have been calculated.
(§2) [^3H]GABA uptake assays: The [^3H]GABA uptake assays were performed according to Kragler et al.33 Cells were grown in 150 cm^2 plates to a confluence of 70–90 % up to passage 25. After detachment the cells were centrifuged 5 min at 500×g, washed for three times in phosphate buffered saline and, finally, resuspended in Krebs buffer (2.5 mM CaCl2, 1.2 mM MgSO4, 1.2 mM KH2PO4, 4.7 mM KCl, 11 mM glucose, 25 mM Tris, 119 mM NaCl, pH 7.2). The uptake assays were performed with aliquots of the resulting cell suspension (about 100000–200000 cells per well) in a total volume of 250 μl in 96 well 2.2 mL deep well plates. The cells were equilibrated for 25 min in Krebs buffer in the presence of the test compound at 37 °C in a gently shaking water bath. […] After addition of 25 μl of a solution containing [^3H]GABA (2.22 TBq/mmol, ARC, St Louis, MO, USA) and unlabeled GABA in Krebs (final concentration 8 nM [^3H]GABA and 32 nM unlabeled GABA for mGAT1, mGAT3, mGAT4 and 20 nM [^3H]GABA and 20 nM unlabeled GABA for mGAT2) the cells were incubated for further 4 min (mGAT1, mGAT3, mGAT4) or 10 minutes (mGAT2), respectively. The incubation was stopped by filtration through Sartorius MGC micro glass fiber filters pre‐soaked for 1 h in 0.9 % NaCl by means of a Brandell MWXR‐96TI cell harvester (Brandell, Gaithersburg, MD, USA) under reduced pressure. The filters were rinsed two times with cold 0.9 % NaCl and subsequently transferred to 96 well sample plates (Perkin Elmer LAS, Boston, MA, USA). After addition of 200 μl Rotiszint Eco Plus (Roth, Karlsruhe, Germany) per well the radioactivity was determined in a microbeta liquid scintillation counter (Perkin Elmer LAS, Boston, MA, USA). Non‐specific uptake was determined in presence of 10 mM GABA for mGAT1, mGAT3 and mGAT4 or 100 mM GABA for mGAT2, respectively. The results are expressed as means±S.E.M. of at least three separate experiments, each carried out in triplicate.

The target in experiment [2] is T2, mGAT4 (Mus musculus, UniProt P31650).
T2 construct: expressed in transfected cells; host or cells: HEK293
T2 sequence (P31650 1-627): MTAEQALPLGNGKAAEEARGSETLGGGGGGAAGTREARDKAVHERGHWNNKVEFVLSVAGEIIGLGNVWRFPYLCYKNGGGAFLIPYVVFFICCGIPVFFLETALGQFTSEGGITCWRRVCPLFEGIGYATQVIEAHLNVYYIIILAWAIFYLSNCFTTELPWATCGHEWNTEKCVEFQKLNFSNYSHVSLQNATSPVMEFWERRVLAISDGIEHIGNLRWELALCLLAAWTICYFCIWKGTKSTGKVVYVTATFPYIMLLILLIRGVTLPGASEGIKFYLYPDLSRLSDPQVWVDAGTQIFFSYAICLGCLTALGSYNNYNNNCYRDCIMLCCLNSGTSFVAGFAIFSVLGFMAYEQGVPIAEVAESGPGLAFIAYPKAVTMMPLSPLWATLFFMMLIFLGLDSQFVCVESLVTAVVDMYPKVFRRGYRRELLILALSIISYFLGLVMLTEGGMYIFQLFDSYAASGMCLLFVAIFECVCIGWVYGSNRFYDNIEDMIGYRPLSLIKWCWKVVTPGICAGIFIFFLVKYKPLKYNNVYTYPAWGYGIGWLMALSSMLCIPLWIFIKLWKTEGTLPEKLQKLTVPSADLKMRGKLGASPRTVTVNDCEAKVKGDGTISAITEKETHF
Kind of experiment: [^3H]GABA uptake assay, HEK293 cells expressing mGAT4. The settings on record: for pIC50: [^3H]GABA uptake, pIC50±SEM; for remaining activity at 100 µM: HEK293, in presence of 100 μM compound. It counts as cell-based. The protocol:
as §1, §2

For experiment [3], the target named is T3, mGAT1 (Mus musculus, UniProt P31648).
T3 construct: expressed in transfected cells; host or cells: HEK293
Kind of experiment: [^3H]GABA uptake assay, HEK293 cells expressing mGAT1. It counts as cell-based. The settings on record: for remaining activity at 100 µM: HEK293, in presence of 100 μM compound. The protocol:
as §1, §2

Experiment [4] deals with T4, mGAT3 (Mus musculus, UniProt P31649).
T4 construct: expressed in transfected cells; host or cells: HEK293
T4 sequence (P31649 1-602): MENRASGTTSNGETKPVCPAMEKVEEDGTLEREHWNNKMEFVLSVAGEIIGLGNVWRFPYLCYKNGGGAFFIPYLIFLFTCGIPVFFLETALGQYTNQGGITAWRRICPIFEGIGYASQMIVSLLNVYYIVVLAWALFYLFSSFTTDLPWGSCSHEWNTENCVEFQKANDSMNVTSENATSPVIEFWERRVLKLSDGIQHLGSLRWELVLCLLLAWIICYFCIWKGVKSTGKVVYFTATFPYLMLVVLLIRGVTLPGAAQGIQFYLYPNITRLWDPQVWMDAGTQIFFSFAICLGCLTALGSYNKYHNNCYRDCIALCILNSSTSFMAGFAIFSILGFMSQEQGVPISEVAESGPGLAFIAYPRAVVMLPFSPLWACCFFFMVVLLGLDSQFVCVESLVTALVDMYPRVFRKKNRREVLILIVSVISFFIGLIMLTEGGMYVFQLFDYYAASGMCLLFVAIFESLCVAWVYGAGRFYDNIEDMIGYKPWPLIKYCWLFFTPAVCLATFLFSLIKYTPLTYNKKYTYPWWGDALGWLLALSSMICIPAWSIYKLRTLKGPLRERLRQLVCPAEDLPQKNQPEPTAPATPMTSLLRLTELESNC
Kind of experiment: [^3H]GABA uptake assay, HEK293 cells expressing mGAT3. It counts as cell-based. The conditions noted are these: for pIC50: [^3H]GABA uptake, pIC50±SEM; for remaining activity at 100 µM: HEK293, in presence of 100 μM compound. The protocol:
as §1, §2

Experiment [5] has as its target T3, mGAT1. Kind of experiment: MS Binding Assay with NO711 as native MS marker. The settings on record: for remaining activity at 100 µM: in presence of 100 μM compound, read-out: remaining specific NO711 binding (mGAT1). The protocol:
as §1
MS Binding Assays: The MS Binding Assays were performed with mGAT1 membrane preparations obtained from a stably mGAT1 expressing HEK293 cell line and NO711 as unlabeled marker in competitive binding experiments as previously described in detail.34 In short, test compounds were investigated at 7 concentrations in presence of 10 nM NO 711 in competition experiments. Non specific binding was defined as binding remaining in the presence of 100 mM GABA. Incubation was terminated by transfer of 200 μL per well onto a 96‐well filter plate (Acroprep, glass fibre, 1.0 μm, 350 μL, Pall, Dreieich, Germany) with a 12 channel pipette. After rapid vacuum‐filtration the filters were washed with ice cold 0.9 % NaCl (5×150 μL) and dried at 50 °C for 60 min. Afterwards, the filters were eluted with 100 μL methanol containing [^2H10]NO711 (1.4 nM) as internal standard per well into a deep‐well plate by application of vacuum. This step was repeated twice resulting in a total elution volume of 300 μL. Finally, a volume of 130 μL ammonium formate buffer (10 mM, pH 7.0) was added per well and the generated samples analyzed by LC‐ESI‐MS/MS using a API 3200 as described in detail previously.40

pIC50: −log10 of the molar value.

As to `COc1ccc(C(OCCN2CCCC(C(=O)O)C2)(c2ccc(CNCCCC(=O)O)cc2)c2ccc(OC)cc2)cc1` (racemic) [5 s, rac ‐1‐{2‐[(4‐{[(3‐Carboxypropyl)amino]methyl}phenyl)bis(4‐methoxy‐phenyl)methoxy]ethyl}piperidine‐3‐carboxylic acid], the remaining activity at 100 µM in experiment [1] amounted to 51.5%; in experiment [3], 48.5%; in experiment [5], 86.5%. Also, the negative logarithm of the IC50 (pIC50) in experiment [2] was 4.13; in experiment [4], 4.33.
Regarding `CCOC(=O)C1CCCN(CCOC(c2ccc(OC)cc2)(c2ccc(OC)cc2)c2ccc3nccn3c2)C1` (racemic) [12 d, rac‐ Ethyl 1‐(2‐{imidazo[1,2‐a]pyridin‐6‐ylbis(4‐methoxyphenyl)methoxy}‐ethyl)piperidine‐3‐carboxylate], the pIC50 is 4.88 in experiment [1] ([^3H]GABA uptake, pIC50±SEM); 4.24 in experiment [2]; 4.39 in experiment [3] ([^3H]GABA uptake, pIC50±SEM); 4.71 in experiment [4]. In addition, the remaining activity at 100 µM in experiment [5] was 77.2%.
In the case of `COc1ccc(C(OCCN2CCCC(C(=O)O)C2)(c2ccc(CNC(C)(C)C(=O)O)cc2)c2ccc(OC)cc2)cc1` (racemic) [5 q, rac ‐1‐{2‐[(4‐{[(2‐Carboxypropan‐2‐yl)amino]methyl}phenyl)bis(4‐methoxyphenyl)methoxy]ethyl}piperidine‐3‐carboxylic acid], the remaining activity at 100 µM was 77% in experiment [1], 80.7% in experiment [3], 61.1% in experiment [4] and 77% in experiment [5]. This compound also gave a pIC50 in experiment [2] of 4.34.
Turning to `CCOC(=O)C1CCCN(CCOC(c2ccc(OC)cc2)(c2ccc(OC)cc2)c2ccc(C(C)=O)cc2)C1` (racemic) [12 b, rac‐ Ethyl 1‐{2‐[(4‐acetylphenyl)bis(4‐methoxyphenyl)methoxy]ethyl}‐piperidine‐3‐carboxylate], the remaining activity at 100 µM in experiment [1] was 66.4%; in experiment [2], 84.2%; in experiment [3], 72.9%; in experiment [4], 55.2%; in experiment [5], 84.6%.
With `COc1ccc(C(OCCN2CCCC(C(=O)O)C2)(c2ccc(CO)cc2)c2ccc(OC)cc2)cc1` (racemic) [5 m, rac‐1‐(2‐{[4‐(Hydroxymethyl)phenyl]bis[4‐methoxyphenyl]methoxy}‐ethyl)piperidine‐3‐carboxylic acid], the remaining activity at 100 µM in experiment [1] worked out at 91.6%; in experiment [3], 78.1%; in experiment [4], 58.7%; in experiment [5], 55%. In experiment [2], this compound gave a negative logarithm of the IC50 (pIC50) of 4.90.
As to `COc1ccc(C(OCCN2CCCC(C(=O)O)C2)(c2ccc(OC)cc2)c2ccc(C(N)=O)cc2)cc1` (racemic) [5 j, rac ‐1‐{2‐[(4‐Carbamoylphenyl)bis(4‐methoxyphenyl)methoxy]ethyl}‐piperidine‐3‐carboxylic acid], the remaining activity at 100 µM in experiment [1] turned out to be 96.1%; in experiment [2] it was 65.2%; in experiment [3], 79.6%; in experiment [4], 82.1%; in experiment [5], 87%. The compound further had a negative-log IC50 (pIC50) in experiment [2] of less than 4.00.
As to `CCOC(=O)c1ccc(C(OCCN2CCCC(C(=O)OCC)C2)(c2ccc(OC)cc2)c2ccc(OC)cc2)cc1` (racemic) [12 e, rac‐ Ethyl 1‐(2‐{[4‐(ethoxycarbonyl)phenyl]bis[4‐methoxyphenyl]‐methoxy}ethyl)piperidine‐3‐carboxylate], the remaining activity at 100 µM was 87.3% in experiment [1]; 76.1% in experiment [2]; 84.6% in experiment [3]; 79% in experiment [4]; 74.8% in experiment [5].
For `COc1ccc(C(OCCN2CCCC(C(=O)O)C2)(c2ccc(OC)cc2)c2ccc3nccn3c2)cc1` (racemic) [5 d, rac‐ 1‐(2‐{Imidazo[1,2‐a]pyridin‐6‐ylbis(4‐methoxyphenyl)methoxy}‐ethyl)piperidine‐3‐carboxylic acid], the values for the remaining activity at 100 µM in experiment [1], in experiment [3] and in experiment [4] were 72.9%, 84.9% and 81.8%, respectively. This compound gave a negative-log IC50 (pIC50) in experiment [2] of 4.58. Moreover, the Ki in experiment [5] (MS Binding Assay, NO711 marker, pKi±SEM, read-out: pK i mGAT1 (converted)) is 93.3 µM.

One may read the pIC50 as −log10 of the IC50, conventionally taken in molar units. A higher pIC50 goes with a low IC50.

Source of the values: article PMC7317212 (Chemmedchem, 2020).
